Tested on: Neuro-2A-cells
Assay: Slc knock-out / GFP-Puromycin donor knock-in co-transfection, GFP fluorescence
Type: cell-based, murine
Details: for transfection efficiency: PDD (Cas9-gRNA(Slc26a4)-DNA, GFP-Puromycin-LDS)
Experimental: For further knock-out experiments, GE1741 and Neuro-2A cells were tested. The integration of a linear donor sequence (LDS) containing the gene for GFP into the genomic DNA was assessed using three kits from Origene (Herford, Germany): The Slcl9a3-KN2.0 (CAT #: KN515911), the Slc25a24-KN2.0 (CAT #: KN515970) and the Slc26a4-KN2.0 (CAT #: KN516006), which kits all three were mouse gene knock-out kits via CRISPR, non-homology mediated. The kits contained all-in-one plasmids, coding for Cas9 and the target specific sgRNAs. The Slc26a4 kit targeted the solute carrier family 26, member 4 in the chromosome 12. The indel efficiency by targeting the locus Slc26a4 could be already shown in Neuro-2A cells (Ryu et al., 2018), and for the linear-donor-kits (Slc19a3, Slc25a24) two different sgRNA-sequences were tested. […] Thus, for the knock-out of different solute carrier genes (Sic) in Neuro-2A-cells via CRISPR/Cas9, neuro-2A-cells were transfected with different kits in order to compare the efficiency of different targets (knocked-out gene) and different integration techniques (see FIG. 8 and FIG. 10).
FIG. 9A-D Transfection efficiency of saponin-mediated PDD (Cas9-gRNA (Slc26a4)-DNA, LDS-DNA)-transfections. A: Neuro-2A-cells were transfected with PDD-nanoplexes (Cas9-gRNA (Slc26a4)-DNA, GFP-Puromycin-LDS, 4:1 and 8:1 mass ratio when the mass of the peptide and the DNA are considered), with and without GE1741-Co-administration. The application of GE1741 led to a transfection efficiency of 20% and 30%, respectively, for the 4:1 and 8:1 mass ratio. Lipofectamin3000 served as positive control. B-D: Distinct fluorescence intensity increase of Neuro-2A-cells after saponin-mediated GFP-gene knock-in. n≥3; *: significant difference compared to the saponin-free transfection (only nuclease), U-test was performed. FIG. 9B: negative control; FIG. 9C: PDD(Cas9-gRNA(Slc26a4)-DNA, Puro-GFP-LDS), 4:1); FIG. 9D: PDD(Cas9-gRNA(Slc26a4)-DNA, Puro-GFP-LDS), 4:1)+GE1741.
FIG. 11A, B. Knockout of different solute carrier (Sic) in Neuro-2A-cells—homologous recombination vs. non-homologous recombination. Neuro-2A-cells were transfected using NHR kits and using HR kits in order to compare the efficiency for different targets and different integration techniques, under influence of the absence or presence of saponin GE1741 in the K16-peptide comprising nanoplexes. […] (A) co-transfection of plasmid DNA comprising nucleic acids encoding for Cas9 and gRNA(Slc26a4), and LDS DNA encoding for puromycin and green fluorescent protein (Puro-GFP-LDS). (B) co-transfection of plasmid DNA comprising nucleic acids encoding for Cas9 and gRNA(Slc), and donor template DNA encoding for puromycin and green fluorescent protein (Puro-GFP-DS) provided as DNA vector.
The co-transfection of Neuro-2A-cells with the plasmid DNA encoding for the Cas9 and the gRNA, and the LDS encoding for the GFP and the Puromycin, was done in a poly-lysine K16 peptide—nucleic acid ratio of 4:1 and 8:1, and plasmid DNA and LDS was complexed equally (500 ng/well). Transfections of cells were performed with and without GE1741 in the cell culture medium in which the cells were cultured. The transfection efficiency under influence of the absence or presence of the saponin was compared to transfection under influence of the presence of Lipofectamin3000 during transfection of the cells.
The integration of donor sequence into the genome can be performed via non-homologous recombination (‘NHR’) and homologous recombination (‘HR’). […]

CC(=O)OC1C(C)OC(OC2C(C)OC(OC(=O)C34CCC(C)(C)CC3C3=CCC5C6(C)CCC(OC7OC(C(=O)O)C(O)C(OC8OCC(O)C(O)C8O)C7OC7OC(CO)C(O)C(O)C7O)C(C)(C=O)C6CCC5(C)C3(C)CC4O)C(OC3OC(C)C(OC4OCC(O)C(OC5OCC(O)C(O)C5O)C4O)C(O)C3O)C2O)C(O)C1OC(C)=O (centres unmarked) [GE1741]
GFP expression (in words) (HR-knock-in kits (Slc4a4, Slc11a2), circular donor): no GFP expression
transfection efficiency vs saponin-free transfection (in words) (NHR-knock-in kits with LDS (Slc26a4, Slc19a3, Slc25a24), U-test): significant increase of transfection efficiency
transfection efficiency (4:1 mass ratio): 20%
transfection efficiency (8:1 mass ratio): 30%
transfected cells expressing fluorescence (co-transfection Cas9-gRNA plasmid + LDS, 500 ng/well each, ratio 4:1 and 8:1): over 30%

Source: patent publication US20240279684A1, “CYTOSOLIC DELIVERY OF GENOME EDITING TOOLS” (SAPREME TECHNOLOGIES B.V., priority 2021, published 2024)
